According to patent US12070458B2, “Therapeutic agent composition and method of use, for treatment of mild congnitive impairment, depression, and psychological disorders” (priority 2018, dated 2024):

Tests used:
[1] = tested on: scopolamine-induced memory impairment; test: Morris Water Maze, scopolamine-induced memory impairment; format: in vivo, Wistar rats; conditions: 20 mg/kg; daily, oral; scopolamine 0.5 mg/kg i.p.
NR2B-subtype receptors = target: T1, NR2B-subtype receptors (Mus musculus, UniProt P35438+Q01097); test: NR2B receptor occupancy ex vivo (3H Ro 25-6981) after intravenous administration; format: in vivo, CD-1 mice
T1 construct: from tissue; host or cells: forebrain membrane homogenate of male CD-1 mice
T1 sequence (Q01097 27-1482, other chains not shown): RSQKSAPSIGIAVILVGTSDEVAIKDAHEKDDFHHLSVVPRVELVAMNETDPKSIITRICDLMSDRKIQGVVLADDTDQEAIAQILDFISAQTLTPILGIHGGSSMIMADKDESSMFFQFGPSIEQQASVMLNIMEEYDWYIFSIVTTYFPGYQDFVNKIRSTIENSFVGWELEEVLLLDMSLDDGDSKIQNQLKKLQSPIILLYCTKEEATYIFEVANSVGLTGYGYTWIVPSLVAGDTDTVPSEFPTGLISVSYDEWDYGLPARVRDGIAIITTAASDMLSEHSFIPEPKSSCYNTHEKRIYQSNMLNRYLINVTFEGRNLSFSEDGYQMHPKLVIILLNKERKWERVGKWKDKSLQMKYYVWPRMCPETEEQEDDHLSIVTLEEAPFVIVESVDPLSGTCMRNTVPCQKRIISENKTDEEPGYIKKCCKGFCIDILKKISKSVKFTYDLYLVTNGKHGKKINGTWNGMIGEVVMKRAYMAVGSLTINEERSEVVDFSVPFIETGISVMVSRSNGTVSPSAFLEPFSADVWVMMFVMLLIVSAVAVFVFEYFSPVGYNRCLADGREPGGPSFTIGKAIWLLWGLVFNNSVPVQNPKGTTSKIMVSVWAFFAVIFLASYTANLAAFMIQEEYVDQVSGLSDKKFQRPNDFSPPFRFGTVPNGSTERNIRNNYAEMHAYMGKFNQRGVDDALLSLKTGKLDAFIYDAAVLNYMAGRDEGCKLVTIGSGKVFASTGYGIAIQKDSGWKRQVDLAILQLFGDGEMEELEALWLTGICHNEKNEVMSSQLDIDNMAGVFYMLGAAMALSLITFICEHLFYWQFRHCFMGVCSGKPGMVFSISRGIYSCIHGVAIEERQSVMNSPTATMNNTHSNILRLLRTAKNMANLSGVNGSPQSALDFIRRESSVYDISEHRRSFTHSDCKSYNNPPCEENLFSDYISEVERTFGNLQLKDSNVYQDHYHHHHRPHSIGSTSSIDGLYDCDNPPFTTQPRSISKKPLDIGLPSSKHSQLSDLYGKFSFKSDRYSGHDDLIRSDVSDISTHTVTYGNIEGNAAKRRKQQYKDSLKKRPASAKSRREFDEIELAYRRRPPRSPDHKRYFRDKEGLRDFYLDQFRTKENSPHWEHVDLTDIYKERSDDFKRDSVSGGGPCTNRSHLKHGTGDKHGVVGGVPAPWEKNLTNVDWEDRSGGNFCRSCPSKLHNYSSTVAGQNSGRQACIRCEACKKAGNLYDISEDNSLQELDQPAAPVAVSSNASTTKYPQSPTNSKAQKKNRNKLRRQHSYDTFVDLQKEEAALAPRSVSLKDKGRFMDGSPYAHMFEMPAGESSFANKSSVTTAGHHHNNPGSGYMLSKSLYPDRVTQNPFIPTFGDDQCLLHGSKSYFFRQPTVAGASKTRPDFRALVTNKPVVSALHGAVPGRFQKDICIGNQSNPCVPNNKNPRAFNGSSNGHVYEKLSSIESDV
Procedure: In this experiment, 8-10 weeks old male CD-1 mice (n=12) were administered intravenously in a vehicle consisting of 10% dimethylacetamide, 40% PEG-400, 30% hydroxypropyl betacyclodextrin, and 30% water with cyclic Prolyl Glycine (0.10 mg: rill, and the forebrains were harvested 15 minutes post-dosing by decapitation. The brain samples were immediately frozen and stored at −80′ C.
On the following day, the dosed brain samples were thawed on ice for 20-30 minutes followed by homogenization using Polytron for 10 seconds in cold homogenization buffer composed of 50 mM KH2PO4 (pH adjusted to 7.4 with KOH), 1 mM EDTA, 0.005% Triton X 100 and protease inhibitor cocktail (Fischer Scientific). The crude homogenates were further homogenized using a Bounce homogenizer (Thomas Scientific) and the homogenized membrane aliquots from all animals were […] and stored at −80° C. until further use. The whole homogenization process was performed on ice.
For determining occupancy, the membrane homogenates were thawed on ice and then needle homogenized using a 25-gauge needle. […] Non-specific binding was determined using 10 μM Ro 25-6981 added to the wells containing membrane homogenates from vehicle-dosed animals. […]

immobility behavior = test: Mouse Forced Swim Test (mFST); format: in vivo, mice; conditions: 1 mg/Kg i.v. thirty minutes before swim session
Procedure: Forced Swim Test (FST) is an animal model used to assess antidepressant compounds in preclinical studies. The FST was performed similar to the method of Porsolt et al. with modifications (Porsolt R D, Bertin A, Jalfre M. Behavioral despair in mice: a primary screening test for antidepressants. Arch Int Pharmacodyn Thér 1977; 229:327-36).
In this experiment, mice are forced to swim in an inescapable cylinder filled with water. Under these conditions, mice will initially try to escape and eventually develop immobility behavior; this behavior is interpreted as a passive stress-coping strategy or depression-like behavior. Swim tanks were positioned inside a box made of plastic. […] The duration of immobility was evaluated during the total 6 min of the test and expressed as duration (sec) of immobility. […]
In order to avoid the risk of obtaining the false positive\negative effects in the FST caused by a possible influence of the tested drugs on the locomotor activity, spontaneous locomotor activity was measured using an animal activity meter Opto-Varimex-4 Auto-Track (Columbus Instruments, USA). […] Spontaneous locomotor activity was evaluated between the 2nd and the 6th min, which corresponds with the time interval analysed in the FST. […]
Drug levels were 215 nM in the plasma. The NR2B receptor occupancy was determined to be 68%.

[2] = tested on: extracellular levels of serotonin (5-HT), noradrenaline, dopamine, acetylcholine and histamine; test: Extracellular neurotransmitter levels in rat prefrontal cortex and hippocampus; conditions: in vivo

receptor occupancy at 1 mg/kg (NR2B-subtype receptors; 1 mg/Kg i.v., at the end of FST): 73% | receptor occupancy at 3 mg/kg (NR2B-subtype receptors; 3 mg/Kg i.v., forebrains harvested 15 minutes post-dosing): 93%
SMILES: O=C1NCC(=O)N2CCC[C@@H]12 [cPG, cyclic Prolyl Glycine]
cognitive impairment induced by scopolamine (time to platform) [1]: significantly reversed | immobility time (immobility behavior): statistically significant decrease | extracellular levels of serotonin (5-HT), noradrenaline, dopamine, acetylcholine and histamine [2]: increases
